Experimental data: patent US10336792B2, “Antimicrobial peptide dendrimers” (priority 2014, dated 2019)
Values after ≈ are worked out from the molar mass of the structure shown. Positions of bridges follow the written chain, without caps; N, C: chain ends. Residues, ends and D or L forms follow the SMILES beside them. Groups on a side chain read outwards from the residue. Chains are numbered I, II in the order given. *: point of attachment. Stearoyl = CCCCCCCCCCCCCCCCCC(=O)*; Lauroyl = CCCCCCCCCCCC(=O)*; Octanoyl = CCCCCCCC(=O)*; Hexanoyl = CCCCCC(=O)*

Experiments:
Format in all cases: cell-based
[1] = tested on: Pseudomonas aeruginosa (strain PA01); assay: microbe, parasite or virus in culture; settings: strain
In short: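 Broth microdilution MIC against P. aeruginosa PAO1 in LB: peptides serially diluted by ⅔, bacteria added at OD600 0.001 and incubated 18–24 h at 37 °C. MTT added; MIC is the lowest concentration preventing visible growth.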

[2] = tested on: Bacillus subtilis (strain BR151); settings: strain BR151
In short: (§1)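 Broth microdilution MIC in LB; overnight cultures diluted to OD600 0.001 and mixed 1:1 with ⅔-serially diluted samples (stock 1 mg mL^−1 in H2O), 37° C for 18-24 h. MTT (0.1%) added; MIC read by eye as lowest concentration inhibiting visible growth (yellow).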

[3] = tested on: Escherichia coli (strain DH5α); settings: DH5α
In short: as §1

[4] = tested on: Staphylococcus aureus (COL, MRSA reference strain); settings: COL, reference strain
Procedure: Antimicrobial activity was assayed against P. aeruginosa PA01 (WT), P. aeruginosa PT1482 (A-), PT1485 (A-B-), PT1149 (A-B-C-algC), PT331 (Z61) (LPS mutants), P. aeruginosa PEJ2.6, PEJ9.1, ZEM1.A, ZEM9.A (clinical isolates from Université de Genève/Centre Médical Universitaire), Burkholderia cenocepacia (B. ceno), Staphylococcus aureus (S. aureus, MRSA strain) and Acinetobacter baumannii (A. baum) (clinical isolates from Université de Genève/Centre Médical Universitaire). To determine the minimal inhibitory concentration (MIC), microdilution broth method was used. A colony of bacteria was grown in MH-medium overnight at 37° C. The samples were prepared as stock solutions of 8 mg mL^−1 in H2O, diluted to the beginning concentration of 32, 64, 128 or 256 μg/mL in 300 μL MH-medium, added to the first well of 96-well microtiterplate (TPP, untreated) and diluted serially by ½. The concentration of the bacteria was quantified by measuring absorbance at 600 nm and diluted to OD600=0.022 in MH-medium. The sample solutions (150 μL) were mixed with 4 μL diluted bacterial suspension with a final inoculation of about of 5×10^5 CFU. The plates were incubated at 37° C. until satisfactory growth (˜18 h). For each test, two columns of the plate were kept for sterility control (SC, broth only) and growth control (GC, broth with bacterial inoculums, no antibiotics). The minimal inhibitory concentration (MIC) was defined as the lowest concentration of the antimicrobial substance (peptide dendrimer) that inhibited visible growth of the tested bacteria with the unaided eye. For microbiological study Polymyxin was used as references.
Ten of the most promising compounds (FIG. 5) were tested for their efficiency against four clinical isolates of P. aeruginosa (ZEM9.A, ZEM1.A, PEJ2.6, PEJ9.1), one S. aureus (COL, MRSA reference strain) and one A. baumannii strain. For the experiments in Genève the peptide dendrimers and reference compounds (polymyxin) were dissolved in PBS and the assay was carried out in Müller-Hinton (MH) broth with a two-fold dilution.

CCCCCCCCCCCC(=O)NCCCC[C@H](NC(=O)[C@H](CC(C)C)NC(=O)[C@H](CCCCN)NC(=O)[C@H](CCCCNC(=O)[C@H](CC(C)C)NC(=O)[C@H](CCCCN)NC(=O)[C@H](CCCCNC(=O)[C@H](CC(C)C)NC(=O)[C@@H](N)CCCCN)NC(=O)[C@H](CC(C)C)NC(=O)[C@@H](N)CCCCN)NC(=O)[C@H](CC(C)C)NC(=O)[C@H](CCCCN)NC(=O)[C@H](CCCCNC(=O)[C@H](CC(C)C)NC(=O)[C@@H](N)CCCCN)NC(=O)[C@H](CC(C)C)NC(=O)[C@@H](N)CCCCN)C(N)=O [MSt-263, (KL)4(KKL)2(KKLKC12)] (I: H-KLK([Leu-Lys])KLKKLK(Lauroyl)-NH2 / II: H-KLK([Leu-Lys])KL; amide I:6-II:C) was tested, and the “MIC P. aeruginosa PAO1” value [1] was 1 µg/mL (≈ 0.416 µM), the “MIC B. subtilis BR151” value [2] was 2 µg/mL (≈ 0.833 µM) and the “MIC E. coli DH5α” value [3] was 1 µg/mL (≈ 0.416 µM). For the same molecule, the “MIC S. aureus (COL, MRSA reference strain)” value [4] was “below 20 μg/mL”.

CCCCCC(=O)N[C@@H](CCCCN)C(=O)N[C@@H](CC(C)C)C(=O)NCCCC[C@H](NC(=O)[C@H](CC(C)C)NC(=O)[C@H](CCCCN)NC(=O)CCCCC)C(=O)N[C@@H](CCCCN)C(=O)N[C@@H](CC(C)C)C(=O)NCCCC[C@H](NC(=O)[C@H](CC(C)C)NC(=O)[C@H](CCCCN)NC(=O)[C@H](CCCCNC(=O)[C@H](CC(C)C)NC(=O)[C@H](CCCCN)NC(=O)CCCCC)NC(=O)[C@H](CC(C)C)NC(=O)[C@H](CCCCN)NC(=O)CCCCC)C(=O)N[C@@H](CCCCN)C(=O)N[C@@H](CC(C)C)C(=O)NCCCC[C@H](NC(=O)[C@H](CC(C)C)NC(=O)[C@H](CCCCN)NC(=O)[C@H](CCCCNC(=O)[C@H](CC(C)C)NC(=O)[C@H](CCCCN)NC(=O)[C@H](CCCCNC(=O)[C@H](CC(C)C)NC(=O)[C@H](CCCCN)NC(=O)CCCCC)NC(=O)[C@H](CC(C)C)NC(=O)[C@H](CCCCN)NC(=O)CCCCC)NC(=O)[C@H](CC(C)C)NC(=O)[C@H](CCCCN)NC(=O)[C@H](CCCCNC(=O)[C@H](CC(C)C)NC(=O)[C@H](CCCCN)NC(=O)CCCCC)NC(=O)[C@H](CC(C)C)NC(=O)[C@H](CCCCN)NC(=O)CCCCC)C(=O)N[C@@H](CCCCN)C(=O)N[C@@H](CC(C)C)C(N)=O [MSt-288, (C6KL)8(KKL)4(KKL)2(KKL)] (I: Hexanoyl-KLK([Leu-Lys-Hexanoyl])KLKKLKKL-NH2 / II: Hexanoyl-KLK([Leu-Lys-Hexanoyl])KLKKL / III: Hexanoyl-KLK([Leu-Lys-Hexanoyl])KL / IV: Hexanoyl-KLK([Leu-Lys-Hexanoyl])KL; amide I:6-IV:C, I:9-II:C, II:6-III:C) was tested, and the “MIC P. aeruginosa PAO1” value [1] was 2 µg/mL (≈ 0.376 µM), the “MIC B. subtilis BR151” value [2] was 1 µg/mL (≈ 0.188 µM) and the “MIC E. coli DH5α” value [3] was 5 µg/mL (≈ 0.94 µM).

For CCCCCCCC(=O)NCCCC[C@H](NC(=O)[C@H](CC(C)C)NC(=O)[C@H](CCCCN)NC(=O)[C@H](CCCCNC(=O)[C@H](CC(C)C)NC(=O)[C@H](CCCCN)NC(=O)[C@H](CCCCNC(=O)[C@H](CC(C)C)NC(=O)[C@@H](N)CCCCN)NC(=O)[C@H](CC(C)C)NC(=O)[C@@H](N)CCCCN)NC(=O)[C@H](CC(C)C)NC(=O)[C@H](CCCCN)NC(=O)[C@H](CCCCNC(=O)[C@H](CC(C)C)NC(=O)[C@@H](N)CCCCN)NC(=O)[C@H](CC(C)C)NC(=O)[C@@H](N)CCCCN)C(N)=O [MSt-261, (KL)4(KKL)2(KKLKC8)] (I: H-KLK([Leu-Lys])KLKKLK(Octanoyl)-NH2 / II: H-KLK([Leu-Lys])KL; amide I:6-II:C), the “MIC P. aeruginosa PAO1” value [1] was 1 µg/mL (≈ 0.426 µM), the “MIC B. subtilis BR151” value [2] was 4 µg/mL (≈ 1.71 µM) and the “MIC E. coli DH5α” value [3] was 1 µg/mL (≈ 0.426 µM).

In the case of CC(C)C[C@H](NC(=O)[C@H](CCCNC(=N)N)NC(=O)[C@H](CCCCNC(=O)[C@H](CC(C)C)NC(=O)[C@@H](N)CCCNC(=N)N)NC(=O)[C@H](CC(C)C)NC(=O)[C@@H](N)CCCNC(=N)N)C(=O)NCCCC[C@H](NC(=O)[C@H](CC(C)C)NC(=O)[C@H](CCCNC(=N)N)NC(=O)[C@H](CCCCNC(=O)[C@H](CC(C)C)NC(=O)[C@@H](N)CCCNC(=N)N)NC(=O)[C@H](CC(C)C)NC(=O)[C@@H](N)CCCNC(=N)N)C(=O)N[C@@H](CCCNC(=N)N)C(=O)N[C@@H](CC(C)C)C(=O)N[C@@H](CSSC[C@H](NC(=O)[C@H](CC(C)C)NC(=O)[C@H](CCCNC(=N)N)NC(=O)[C@H](CCCCNC(=O)[C@H](CC(C)C)NC(=O)[C@H](CCCNC(=N)N)NC(=O)[C@H](CCCCNC(=O)[C@H](CC(C)C)NC(=O)[C@@H](N)CCCNC(=N)N)NC(=O)[C@H](CC(C)C)NC(=O)[C@@H](N)CCCNC(=N)N)NC(=O)[C@H](CC(C)C)NC(=O)[C@H](CCCNC(=N)N)NC(=O)[C@H](CCCCNC(=O)[C@H](CC(C)C)NC(=O)[C@@H](N)CCCNC(=N)N)NC(=O)[C@H](CC(C)C)NC(=O)[C@@H](N)CCCNC(=N)N)C(N)=O)C(N)=O [CCS-18 dimer, ((RL)4(KRL)2KRLC)2] (I: H-RLK([Leu-Arg])RLKRLC-NH2 / II: H-RLK([Leu-Arg])RLKRLC-NH2 / III: H-RLK([Leu-Arg])RL / IV: H-RLK([Leu-Arg])RL; amide I:6-III:C, II:6-IV:C; disulfide I:9-II:9; N-terminus assumed), the “MIC P. aeruginosa PAO1” value [1] is reported as 9 µg/mL (≈ 1.88 µM), the “MIC B. subtilis BR151” value [2] is reported as 9 µg/mL (≈ 1.88 µM) and the “MIC E. coli DH5α” value [3] is reported as 13 µg/mL (≈ 2.72 µM).

In the case of CCCCCCCCCCCCCCCCCC(=O)NCCCC[C@H](NC(=O)[C@H](CC(C)C)NC(=O)[C@H](CCCCN)NC(=O)[C@H](CCCCNC(=O)[C@H](CC(C)C)NC(=O)[C@H](CCCCN)NC(=O)[C@H](CCCCNC(=O)[C@H](CC(C)C)NC(=O)[C@H](CCCCN)NC(=O)[C@H](CCCCNC(=O)[C@H](CC(C)C)NC(=O)[C@@H](N)CCCCN)NC(=O)[C@H](CC(C)C)NC(=O)[C@@H](N)CCCCN)NC(=O)[C@H](CC(C)C)NC(=O)[C@H](CCCCN)NC(=O)[C@H](CCCCNC(=O)[C@H](CC(C)C)NC(=O)[C@@H](N)CCCCN)NC(=O)[C@H](CC(C)C)NC(=O)[C@@H](N)CCCCN)NC(=O)[C@H](CC(C)C)NC(=O)[C@H](CCCCN)NC(=O)[C@H](CCCCNC(=O)[C@H](CC(C)C)NC(=O)[C@H](CCCCN)NC(=O)[C@H](CCCCNC(=O)[C@H](CC(C)C)NC(=O)[C@@H](N)CCCCN)NC(=O)[C@H](CC(C)C)NC(=O)[C@@H](N)CCCCN)NC(=O)[C@H](CC(C)C)NC(=O)[C@H](CCCCN)NC(=O)[C@H](CCCCNC(=O)[C@H](CC(C)C)NC(=O)[C@@H](N)CCCCN)NC(=O)[C@H](CC(C)C)NC(=O)[C@@H](N)CCCCN)C(N)=O [MSt-284, (KL)8(KKL)4(KKL)2(KKLKC18)] (I: H-KLK([Leu-Lys])KLKKLKKLK(Stearoyl)-NH2 / II: H-KLK([Leu-Lys])KLKKL / III: H-KLK([Leu-Lys])KL / IV: H-KLK([Leu-Lys])KL; amide I:6-IV:C, I:9-II:C, II:6-III:C), the “MIC P. aeruginosa PAO1” value [1] is reported as 9 µg/mL (≈ 1.83 µM), the “MIC B. subtilis BR151” value [2] is reported as 6 µg/mL (≈ 1.22 µM) and the “MIC E. coli DH5α” value [3] is reported as 3 µg/mL (≈ 0.609 µM).

In the case of NCCCC[C@H](NC(=O)[C@H](CCCCNC(=O)[C@H](Cc1c[nH]c2ccccc12)NC(=O)[C@H](CCCCN)NC(=O)[C@H](CCCCNC(=O)[C@H](Cc1c[nH]c2ccccc12)NC(=O)[C@H](CCCCN)NC(=O)[C@H](CCCCNC(=O)[C@H](Cc1c[nH]c2ccccc12)NC(=O)[C@@H](N)CCCCN)NC(=O)[C@H](Cc1c[nH]c2ccccc12)NC(=O)[C@@H](N)CCCCN)NC(=O)[C@H](Cc1c[nH]c2ccccc12)NC(=O)[C@H](CCCCN)NC(=O)[C@H](CCCCNC(=O)[C@H](Cc1c[nH]c2ccccc12)NC(=O)[C@@H](N)CCCCN)NC(=O)[C@H](Cc1c[nH]c2ccccc12)NC(=O)[C@@H](N)CCCCN)NC(=O)[C@H](Cc1c[nH]c2ccccc12)NC(=O)[C@H](CCCCN)NC(=O)[C@H](CCCCNC(=O)[C@H](Cc1c[nH]c2ccccc12)NC(=O)[C@H](CCCCN)NC(=O)[C@H](CCCCNC(=O)[C@H](Cc1c[nH]c2ccccc12)NC(=O)[C@@H](N)CCCCN)NC(=O)[C@H](Cc1c[nH]c2ccccc12)NC(=O)[C@@H](N)CCCCN)NC(=O)[C@H](Cc1c[nH]c2ccccc12)NC(=O)[C@H](CCCCN)NC(=O)[C@H](CCCCNC(=O)[C@H](Cc1c[nH]c2ccccc12)NC(=O)[C@@H](N)CCCCN)NC(=O)[C@H](Cc1c[nH]c2ccccc12)NC(=O)[C@@H](N)CCCCN)C(=O)N[C@@H](Cc1c[nH]c2ccccc12)C(N)=O [MSt-172, (KW)8(KKW)4(KKW)2(KKW)] (I: H-KWK([Trp-Lys])KWKKWKKW-NH2 / II: H-KWK([Trp-Lys])KWKKW / III: H-KWK([Trp-Lys])KW / IV: H-KWK([Trp-Lys])KW; amide I:6-IV:C, I:9-II:C, II:6-III:C; N-terminus assumed), the “MIC P. aeruginosa PAO1” value [1] is reported as 12 µg/mL (≈ 2.13 µM), the “MIC B. subtilis BR151” value [2] is reported as 6 µg/mL (≈ 1.07 µM) and the “MIC E. coli DH5α” value [3] is reported as 7 µg/mL (≈ 1.24 µM).
